Key:
HiBiT tagged CK1α = HiBiT tagged CK1α (Homo sapiens, UniProt P48729+Q96SW2); test: CK1α degradation assay (HiBiT assay); assay type: cell-based; settings: 20 hours; for Dmax: HT-1080, HT-1080 cells; for Dmax / HiBiT CK1α: Dmax: maximum CK1α degradation; for DC50 / HiBiT CK1α: Dmax: HT-1080 cells; for DC50: concentration at 50% CK1α degradation
Procedure: (§1) CK1α and GSPT1 Degradation Assay (HiBiT Assay) The following is an example of an assay that can be used to determine the dose-dependent CK1α and GSPT1 degradation activities of test compounds in a human cell line such as HT-1080 ([…]). HT-1080 cells stably overexpressing wild-type CRBN, GSPT1A(1-138)/G575N mutant and HiBiT tagged CK1α or GSPT1 were seeded into 384-well plates (Cat #3764, Corning) pre-spotted with DMSO or test compounds. Increasing concentrations of test compounds (ranging from 3.162×10^-4 μM to 10 μM at a 3.16-fold increment) or DMSO were dispensed into an empty 384-well plate using an Echo Acoustic Liquid Handler (Beckman Coulter). About 10,000 cells in complete DMEM cell culture media were seeded per well. […] Luminescence was then measured with an EnVision plate reader (PerkinElmer) or a PHERAstar plate reader (BMG Labtech). All CK1α or GSPT1 degradation curves were processed using Collaborative Drug Discovery Vault softwares (Burlingame, CA., www.collaborativedrug.com). CK1α or GSPT1 levels in compound-treated wells were normalized to that of DMSO control and expressed as Percent of Control (PoC, y). […]

HiBiT tagged GSPT1 = HiBiT tagged GSPT1 (Homo sapiens, UniProt P15170+Q96SW2); test: GSPT1 degradation assay (HiBiT assay); assay type: cell-based; settings: 20 hours, maximum GSPT1 degradation; for Dmax: HT-1080, HT-1080 cells; for HiBiT GSPT1: Dmax: HT-1080 cells
Chain of HiBiT tagged GSPT1 (P15170 whole entry): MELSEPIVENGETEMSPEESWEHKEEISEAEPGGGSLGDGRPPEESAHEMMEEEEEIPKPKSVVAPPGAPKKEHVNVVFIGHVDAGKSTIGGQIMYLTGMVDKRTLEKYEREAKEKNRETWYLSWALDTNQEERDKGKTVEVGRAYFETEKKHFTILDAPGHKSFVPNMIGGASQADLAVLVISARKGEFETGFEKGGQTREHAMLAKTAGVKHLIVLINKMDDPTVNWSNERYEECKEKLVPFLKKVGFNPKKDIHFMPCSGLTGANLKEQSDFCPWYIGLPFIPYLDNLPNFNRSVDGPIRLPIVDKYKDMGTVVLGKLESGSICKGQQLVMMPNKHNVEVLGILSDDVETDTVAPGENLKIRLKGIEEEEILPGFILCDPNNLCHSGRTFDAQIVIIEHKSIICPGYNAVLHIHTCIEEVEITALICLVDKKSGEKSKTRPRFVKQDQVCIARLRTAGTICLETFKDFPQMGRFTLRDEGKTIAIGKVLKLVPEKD
Chain of HiBiT tagged GSPT1 (Q96SW2 whole entry): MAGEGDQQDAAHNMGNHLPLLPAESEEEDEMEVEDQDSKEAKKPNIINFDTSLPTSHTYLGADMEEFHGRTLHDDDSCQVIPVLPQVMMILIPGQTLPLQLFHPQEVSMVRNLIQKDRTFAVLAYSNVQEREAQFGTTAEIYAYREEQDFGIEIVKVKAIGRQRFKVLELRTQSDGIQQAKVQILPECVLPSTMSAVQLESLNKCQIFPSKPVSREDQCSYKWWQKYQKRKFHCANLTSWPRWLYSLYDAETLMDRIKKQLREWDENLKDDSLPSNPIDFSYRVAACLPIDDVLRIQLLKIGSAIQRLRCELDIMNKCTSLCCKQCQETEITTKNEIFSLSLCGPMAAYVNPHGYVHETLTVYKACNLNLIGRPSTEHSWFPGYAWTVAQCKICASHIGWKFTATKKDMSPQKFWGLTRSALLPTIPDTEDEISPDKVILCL
Chain of HiBiT tagged GSPT1 (Q16531 whole entry partner): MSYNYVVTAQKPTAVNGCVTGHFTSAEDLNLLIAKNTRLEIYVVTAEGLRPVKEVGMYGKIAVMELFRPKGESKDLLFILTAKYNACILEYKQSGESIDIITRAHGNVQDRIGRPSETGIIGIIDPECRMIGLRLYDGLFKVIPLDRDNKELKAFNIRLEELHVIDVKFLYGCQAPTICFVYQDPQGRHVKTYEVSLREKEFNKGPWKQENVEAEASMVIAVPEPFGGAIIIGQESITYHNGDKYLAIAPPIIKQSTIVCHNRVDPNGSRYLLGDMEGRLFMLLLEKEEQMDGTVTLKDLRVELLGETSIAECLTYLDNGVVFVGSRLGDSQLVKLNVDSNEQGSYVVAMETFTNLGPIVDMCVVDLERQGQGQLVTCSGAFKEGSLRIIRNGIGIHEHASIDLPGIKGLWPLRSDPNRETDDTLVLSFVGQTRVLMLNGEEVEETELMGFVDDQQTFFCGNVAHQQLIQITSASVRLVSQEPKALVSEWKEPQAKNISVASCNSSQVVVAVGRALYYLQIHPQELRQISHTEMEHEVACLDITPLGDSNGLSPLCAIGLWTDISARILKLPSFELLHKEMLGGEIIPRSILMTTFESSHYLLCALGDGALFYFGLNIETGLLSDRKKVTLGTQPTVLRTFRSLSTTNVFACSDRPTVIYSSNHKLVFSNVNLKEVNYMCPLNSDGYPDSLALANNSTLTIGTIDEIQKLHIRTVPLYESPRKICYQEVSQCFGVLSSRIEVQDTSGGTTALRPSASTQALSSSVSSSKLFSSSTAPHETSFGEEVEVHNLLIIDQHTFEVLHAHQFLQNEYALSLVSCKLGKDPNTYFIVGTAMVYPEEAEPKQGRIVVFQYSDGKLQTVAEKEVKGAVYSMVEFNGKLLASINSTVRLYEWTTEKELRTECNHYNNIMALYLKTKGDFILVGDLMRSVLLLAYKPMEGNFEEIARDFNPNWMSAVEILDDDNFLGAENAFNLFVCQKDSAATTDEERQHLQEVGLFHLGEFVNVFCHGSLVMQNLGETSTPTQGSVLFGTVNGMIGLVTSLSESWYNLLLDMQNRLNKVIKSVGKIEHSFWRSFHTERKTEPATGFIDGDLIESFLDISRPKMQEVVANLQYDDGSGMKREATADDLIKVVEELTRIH
Procedure: as §1

Chain of HiBiT tagged CK1α (P48729 whole entry): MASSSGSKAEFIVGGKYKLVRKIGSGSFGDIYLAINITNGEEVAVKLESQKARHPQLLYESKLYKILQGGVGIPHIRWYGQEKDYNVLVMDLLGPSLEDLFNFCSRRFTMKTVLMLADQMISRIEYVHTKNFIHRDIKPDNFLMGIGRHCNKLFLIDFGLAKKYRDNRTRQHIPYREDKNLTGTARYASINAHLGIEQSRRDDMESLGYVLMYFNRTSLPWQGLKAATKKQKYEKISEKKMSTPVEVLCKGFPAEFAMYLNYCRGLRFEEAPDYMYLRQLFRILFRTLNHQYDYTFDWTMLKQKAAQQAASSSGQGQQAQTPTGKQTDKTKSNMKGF
Chain of HiBiT tagged CK1α (Q96SW2 whole entry): as the sequence (Q96SW2 whole entry) above
Chain of HiBiT tagged CK1α (Q16531 whole entry partner): as the sequence (Q16531 whole entry partner) above

Row | Dmax (HiBiT tagged CK1α) | DC50 (HiBiT tagged CK1α) | Dmax (HiBiT tagged GSPT1) | HiBiT CK1α: Dmax (HiBiT tagged CK1α) | HiBiT GSPT1: Dmax (HiBiT tagged GSPT1) | Compound
1 | 66% | 137 nM | 58.5% |  |  | O=C1CCC(N2Cc3cc(C(=O)N[C@H](c4ncccc4Cl)C4CCC4)ccc3C2=O)C(=O)N1 (stereo in doubt) [Compound 18, N-((*S)-(3-chloropyridin-2-yl)(cyclobutyl)methyl)-2-(2,6-dioxopiperidin-3-yl)-1-oxoisoindoline-5-carboxamide]
2 |  | 180 nM |  | 67% | 33.6% | O=C1CCC(N2Cc3cc(C(=O)N[C@@H](c4ccc(Cl)cc4)C4CC4)ccc3C2=O)C(=O)N1 (stereo in doubt) [Compound 2, N—((*R)-(4-chlorophenyl)(cyclopropyl)methyl)-2-(2,6-dioxopiperidin-3-yl)-1-oxoisoindoline-5-carboxamide]
3 | 49.5% |  | 22.5% |  |  | N#Cc1cccc(C(NC(=O)c2ccc3c(c2)CN(C2CCC(=O)NC2=O)C3=O)C2CC2)c1 (stereo not shown) [Compound 44, N-((3-cyanophenyl)(cyclopropyl)methyl)-2-(2,6-dioxopiperidin-3-yl)-1-oxoisoindoline-5-carboxamide]
4 | 56.1% | 2960 nM | 29.7% |  |  | O=C1CCC(N2Cc3cc(C(=O)NC(c4ccc(F)c(F)c4)C4CCC4)ccc3C2=O)C(=O)N1 (single isomer, unassigned) [Compound 47, N-((*R)-cyclobutyl(3,4-difluorophenyl)methyl)-2-((*R)-2,6-dioxopiperidin-3-yl)-1-oxoisoindoline-5-carboxamide]
5 | 60.1% | 1150 nM | 70.8% |  |  | O=C1CCC(N2Cc3cc(C(=O)N[C@H](c4cccc(Cl)c4)C4CC4)ccc3C2=O)C(=O)N1 (stereo in doubt) [Compound 28, N-((*S)-(3-chlorophenyl)(cyclopropyl)methyl)-2-(2,6-dioxopiperidin-3-yl)-1-oxoisoindoline-5-carboxamide]
6 |  | 363 nM |  | 63.2% | 63.1% | O=C1CCC(N2Cc3cc(C(=O)N[C@H](c4ncccc4F)C4CCC4)ccc3C2=O)C(=O)N1 (stereo in doubt) [Compound 24, N-((*S)-cyclobutyl(3-fluoropyridin-2-yl)methyl)-2-(2,6-dioxopiperidin-3-yl)-1-oxoisoindoline-5-carboxamide]
7 |  | 62.7 nM |  | 74% | 26% | O=C1CCC(N2Cc3cc(C(=O)N[C@H](c4c(F)cccc4Cl)C4CCC4)ccc3C2=O)C(=O)N1 (stereo in doubt) [Compound 69, N-((*S)-(2-chloro-6-fluorophenyl)(cyclobutyl)methyl)-2-(2,6-dioxopiperidin-3-yl)-1-oxoisoindoline-5-carboxamide]
8 | 69.8% | 49.6 nM | 58.2% |  |  | O=C1CCC(N2Cc3cc(C(=O)NC(c4cccc(F)c4Cl)C4CC4)ccc3C2=O)C(=O)N1 (stereo not shown) [Compound 43, N-((2-chloro-3-fluorophenyl)(cyclopropyl)methyl)-2-(2,6-dioxopiperidin-3-yl)-1-oxoisoindoline-5-carboxamide]
9 |  | < 47.1 nM | 27.4% | 49% |  | O=C1CC[C@H](N2Cc3cc(C(=O)N[C@H](c4ccc(F)cc4)C4CCCC4)ccc3C2=O)C(=O)N1 (racemic) [Compound 60, N-((*R)-cyclopentyl(4-fluorophenyl)methyl)-2-((S)-2,6-dioxopiperidin-3-yl)-1-oxoisoindoline-5-carboxamide]
10 | 57.8% | 948 nM |  |  | 48% | O=C1CC[C@H](N2Cc3cc(C(=O)N[C@H](c4ccc(Cl)cc4F)C4CCC4)ccc3C2=O)C(=O)N1 (racemic) [Compound 55, N-((*S)-(4-chloro-2-fluorophenyl)(cyclobutyl)methyl)-2-((*S)-2,6-dioxopiperidin-3-yl)-1-oxoisoindoline-5-carboxamide]
11 | 50.6% | 5190 nM | 73.1% |  |  | O=C1CCC(N2Cc3cc(C(=O)N[C@H](c4ccc(Cl)cc4)C4CC4)ccc3C2=O)C(=O)N1 (stereo in doubt) [Compound 3, N—((*S)-(4-chlorophenyl)(cyclopropyl)methyl)-2-(2,6-dioxopiperidin-3-yl)-1-oxoisoindoline-5-carboxamide]
12 | 57.5% | 416 nM | 30.6% |  |  | O=C1CCC(N2Cc3cc(C(=O)NC(c4ccc(F)c(F)c4)C4CCC4)ccc3C2=O)C(=O)N1 (stereo not shown) [Compound 40, N-(cyclobutyl(3,4-difluorophenyl)methyl)-2-(2,6-dioxopiperidin-3-yl)-1-oxoisoindoline-5-carboxamide]
13 | 66.2% | 221 nM | 37% |  |  | O=C1CCC(N2Cc3cc(C(=O)NC(c4ccc(F)cc4F)C4CC4)ccc3C2=O)C(=O)N1 (stereo not shown) [Compound 1, N-(cyclopropyl(2,4-difluorophenyl)methyl)-2-(2,6-dioxopiperidin-3-yl)-1-oxoisoindoline-5-carboxamide]
14 | 61.3% | 198 nM | 32% |  |  | O=C1CCC(N2Cc3cc(C(=O)NC(c4cccc(F)c4)C4CCC4)ccc3C2=O)C(=O)N1 (stereo not shown) [Compound 23, N-(cyclobutyl(3-fluorophenyl)methyl)-2-(2,6-dioxopiperidin-3-yl)-1-oxoisoindoline-5-carboxamide]
15 | 59.5% | 446 nM | 25.8% |  |  | O=C1CCC(N2Cc3cc(C(=O)N[C@H](c4cccc(C(F)(F)F)c4)C4CC4)ccc3C2=O)C(=O)N1 (stereo in doubt) [Compound 34, N-((*S)-cyclopropyl(3-(trifluoromethyl)phenyl)methyl)-2-(2,6-dioxopiperidin-3-yl)-1-oxoisoindoline-5-carboxamide]
16 | 64.7% | 140 nM | 36.8% |  |  | O=C1CCC(N2Cc3cc(C(=O)N[C@H](c4ccccc4Cl)C4CC4)ccc3C2=O)C(=O)N1 (stereo in doubt) [Compound 12, N-((*S)-(2-chlorophenyl)(cyclopropyl)methyl)-2-(2,6-dioxopiperidin-3-yl)-1-oxoisoindoline-5-carboxamide]
17 | 50.4% | 3880 nM | 24.1% |  |  | O=C1CCC(N2Cc3cc(C(=O)N[C@@H](c4ccc(F)cc4)C4CCC4)ccc3C2=O)C(=O)N1 (stereo in doubt) [Compound 75, N-((*R)-cyclobutyl(4-fluorophenyl)methyl)-2-(2,6-dioxopiperidin-3-yl)-1-oxoisoindoline-5-carboxamide]
18 | 70.8% | 72.7 nM | 36.2% |  |  | O=C1CCC(N2Cc3cc(C(=O)NC(c4ccc(F)cc4)C4CCCC4)ccc3C2=O)C(=O)N1 (stereo not shown) [Compound 37, N-(cyclopentyl(4-fluorophenyl)methyl)-2-(2,6-dioxopiperidin-3-yl)-1-oxoisoindoline-5-carboxamide]
19 | 70.7% | 79.7 nM | 48.3% |  |  | O=C1CCC(N2Cc3cc(C(=O)NC(c4c(F)cccc4F)C4CCC4)ccc3C2=O)C(=O)N1 (stereo not shown) [Compound 22, N-(cyclobutyl(2,6-difluorophenyl)methyl)-2-(2,6-dioxopiperidin-3-yl)-1-oxoisoindoline-5-carboxamide]
20 | 32.2% |  | 7.93% |  |  | O=C1CCC(N2Cc3cc(C(=O)N[C@@H](c4ccc(F)cc4)C4COC4)ccc3C2=O)C(=O)N1 (stereo in doubt) [Compound 59, 2-(2,6-dioxopiperidin-3-yl)-N-((*R)-(4-fluorophenyl)(oxetan-3-yl)methyl)-1-oxoisoindoline-5-carboxamide]
21 | 67.9% | 118 nM | 55.3% |  |  | O=C1CCC(N2Cc3cc(C(=O)N[C@@H](c4c(F)cccc4F)C4CCC4)ccc3C2=O)C(=O)N1 (stereo in doubt) [Compound 66, N-((*R)-cyclobutyl(2,6-difluorophenyl)methyl)-2-(2,6-dioxopiperidin-3-yl)-1-oxoisoindoline-5-carboxamide]
22 | 70.2% | 118 nM | 24.2% |  |  | O=C1CCC(N2Cc3cc(C(=O)NC(c4ccc(F)cc4Cl)C4CCC4)ccc3C2=O)C(=O)N1 (single isomer, unassigned) [Compound 53, N-((*S)-(2-chloro-4-fluorophenyl)(cyclobutyl)methyl)-2-((*S)-2,6-dioxopiperidin-3-yl)-1-oxoisoindoline-5-carboxamide]
23 | 59.3% | 198 nM | 36.3% |  |  | COc1cccc([C@@H](NC(=O)c2ccc3c(c2)CN(C2CCC(=O)NC2=O)C3=O)C2CC2)c1 (stereo in doubt) [Compound 32, N-((*S)-cyclopropyl(3-methoxyphenyl)methyl)-2-(2,6-dioxopiperidin-3-yl)-1-oxoisoindoline-5-carboxamide]
24 | 61.7% | 455 nM | 19.1% |  |  | O=C1CCC(N2Cc3cc(C(=O)N[C@H](c4ncc(F)cc4Cl)C4CC4)ccc3C2=O)C(=O)N1 (stereo in doubt) [Compound 71, N-((*S)-(3-chloro-5-fluoropyridin-2-yl)(cyclopropyl)methyl)-2-(2,6-dioxopiperidin-3-yl)-1-oxoisoindoline-5-carboxamide]
